Test results taken from patent publication US20230123334A1, “AMINO LIPID COMPOUND, PREPARATION METHOD THEREFOR, AND APPLICATION THEREOF” (SHENZHEN SHENXIN BIOTECHNOLOGY CO., LTD., priority 2020, published 2023).

Each molecule was assayed on HEK293 cells (assay: Preliminary screening as DNA vectors, GFP transfection of HEK293 cells). Conditions: HEK293 cells; lipid/DOPE liposome with 75 ng plasmid DNA (psin-EGFP-IRES-Puro); number of cells expressing GFP divided by total number of nuclei (Hoechst).
Type: cell-based
Method in brief: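 Lipid + DOPE liposomes (NaOAc, pH 5.6) complexed w/ 75 ng psin-EGFP-IRES-Puro, 30 min RT; added to 3-5×10^4 HEK293/well, 37° C. Hoechst 0.2 μg/mL at 20-24 h, imaged after further 20-24 h. Efficiency = GFP+ cells / total nuclei.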

SMILES	Absolute DNA transfection efficiency in HEK293 cells
CCCCCCCCCCCCSc1nc(NCCN2CCCCC2)nc(SCCCCCCCCCC)n1 [Compound S10S12D4]	12.0%
CCCCCCCCCCCCSc1nc(NCCN2CCN(C)CC2)nc(SCCCCCCCCCC)n1 [Compound S10S12D5]	9.8%
CCCCCCCCCCCCSc1nc(NCCCN(C)C)nc(SCCCCCCCCCC)n1 [Compound S10S12D6]	16.2%
CCCCCCCCCCCCSc1nc(NCCN(CC)CC)nc(SCCCCCCCCCC)n1 [Compound S10S12D7]	7.2%
CCCCCCCCCCCCSc1nc(NCCCN2CCOCC2)nc(SCCCCCCCCCC)n1 [Compound S10S12D8]	20.9%
CCCCCCCCCCCCSc1nc(NCCCN2CCN(C)CC2)nc(SCCCCCCCCCC)n1 [Compound S10S12D9]	28.1%
CCCCCCCCCCCCSc1nc(NCC2CCN(C)CC2)nc(SCCCCCCCCCC)n1 [Compound S10S12D10]	13.7%
CCCCCCCCCCCCCCSc1nc(NCCN(C)C)nc(SCCCCCCCCCC)n1 [Compound S10S14D1]	8.5%
CCCCCCCCCCCCCCSc1nc(NCCN2CCOCC2)nc(SCCCCCCCCCC)n1 [Compound S10S14D2]	1.5%
CCCCCCCCCCCCCCSc1nc(NCCN2CCCC2)nc(SCCCCCCCCCC)n1 [Compound S10S14D3]	7.9%
CCCCCCCCCCCCCCSc1nc(NCCN2CCCCC2)nc(SCCCCCCCCCC)n1 [Compound S10S14D4]	5.9%
CCCCCCCCCCCCCCSc1nc(NCCN2CCN(C)CC2)nc(SCCCCCCCCCC)n1 [Compound S10S14D5]	15.7%
CCCCCCCCCCCCCCSc1nc(NCCCN(C)C)nc(SCCCCCCCCCC)n1 [Compound S10S14D6]	26.9%
CCCCCCCCCCCCCCSc1nc(NCCN(CC)CC)nc(SCCCCCCCCCC)n1 [Compound S10S14D7]	2.6%
CCCCCCCCCCCCCCSc1nc(NCCCN2CCOCC2)nc(SCCCCCCCCCC)n1 [Compound S10S14D8]	18.9%
CCCCCCCCCCCCCCSc1nc(NCCCN2CCN(C)CC2)nc(SCCCCCCCCCC)n1 [Compound S10S14D9]	3.9%
CCCCCCCCCCCCCCSc1nc(NCC2CCN(C)CC2)nc(SCCCCCCCCCC)n1 [Compound S10S14D10]	23.0%
CCCCCCCCCCCCCCCSc1nc(NCCN(C)C)nc(SCCCCCCCCCC)n1 [Compound S10S15D1]	6.8%
CCCCCCCCCCCCCCCSc1nc(NCCN2CCOCC2)nc(SCCCCCCCCCC)n1 [Compound S10S15D2]	7.7%
CCCCCCCCCCCCCCCSc1nc(NCCN2CCCC2)nc(SCCCCCCCCCC)n1 [Compound S10S15D3]	7.6%
CCCCCCCCCCCCCCCSc1nc(NCCN2CCCCC2)nc(SCCCCCCCCCC)n1 [Compound S10S15D4]	7.5%

SMILES	Absolute DNA transfection efficiency in HEK293 cells
CCCCCCCCCCCCCCCSc1nc(NCCN2CCN(C)CC2)nc(SCCCCCCCCCC)n1 [Compound S10S15D5]	3.7%
CCCCCCCCCCCCCCCSc1nc(NCCCN(C)C)nc(SCCCCCCCCCC)n1 [Compound S10S15D6]	32.8%
CCCCCCCCCCCCCCCSc1nc(NCCN(CC)CC)nc(SCCCCCCCCCC)n1 [Compound S10S15D7]	7.2%
CCCCCCCCCCCCCCCSc1nc(NCCCN2CCOCC2)nc(SCCCCCCCCCC)n1 [Compound S10S15D8]	15.2%
CCCCCCCCCCCCCCCSc1nc(NCCCN2CCN(C)CC2)nc(SCCCCCCCCCC)n1 [Compound S10S15D9]	3.9%
CCCCCCCCCCCCCCCSc1nc(NCC2CCN(C)CC2)nc(SCCCCCCCCCC)n1 [Compound S10S15D10]	55.8%
CCCCCCCCCCCCCCCCSc1nc(NCCN(C)C)nc(SCCCCCCCCCC)n1 [Compound S10S16D1]	7.2%
CCCCCCCCCCCCCCCCSc1nc(NCCN2CCOCC2)nc(SCCCCCCCCCC)n1 [Compound S10S16D2]	0.1%
CCCCCCCCCCCCCCCCSc1nc(NCCN2CCCC2)nc(SCCCCCCCCCC)n1 [Compound S10S16D3]	9.5%
CCCCCCCCCCCCCCCCSc1nc(NCCN2CCCCC2)nc(SCCCCCCCCCC)n1 [Compound S10S16D4]	9.1%
CCCCCCCCCCCCCCCCSc1nc(NCCN2CCN(C)CC2)nc(SCCCCCCCCCC)n1 [Compound S10S16D5]	9.4%
CCCCCCCCCCCCCCCCSc1nc(NCCCN(C)C)nc(SCCCCCCCCCC)n1 [Compound S10S16D6]	14.1%
CCCCCCCCCCCCCCCCSc1nc(NCCN(CC)CC)nc(SCCCCCCCCCC)n1 [Compound S10S16D7]	3.1%
CCCCCCCCCCCCCCCCSc1nc(NCCCN2CCOCC2)nc(SCCCCCCCCCC)n1 [Compound S10S16D8]	15.7%
CCCCCCCCCCCCCCCCSc1nc(NCCCN2CCN(C)CC2)nc(SCCCCCCCCCC)n1 [Compound S10S16D9]	7.8%
CCCCCCCCCCCCCCCCCCSc1nc(NCCN(C)C)nc(SCCCCCCCCCC)n1 [Compound S10S18D1]	9.9%
CCCCCCCCCCCCCCCCCCSc1nc(NCCN2CCOCC2)nc(SCCCCCCCCCC)n1 [Compound S10S18D2]	1.6%
CCCCCCCCCCCCCCCCCCSc1nc(NCCN2CCCC2)nc(SCCCCCCCCCC)n1 [Compound S10S18D3]	11.1%
CCCCCCCCCCCCCCCCCCSc1nc(NCCN2CCCCC2)nc(SCCCCCCCCCC)n1 [Compound S10S18D4]	6.7%
CCCCCCCCCCCCCCCCCCSc1nc(NCCN2CCN(C)CC2)nc(SCCCCCCCCCC)n1 [Compound S10S18D5]	3.7%
CCCCCCCCCCCCCCCCCCSc1nc(NCCCN(C)C)nc(SCCCCCCCCCC)n1 [Compound S10S18D6]	22.4%

The molecules below were run on HEK293 cells (assay: Preliminary screening as mRNA vectors, EGFP mRNA transfection of HEK293 cells). Conditions: HEK293 cells, 96-well plates, EGFP mRNA 50 ng per well; percentage of GFP fluorescent cells relative to total number of cells (Hoechst).
Type: cell-based
Method in brief: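 Each well of HEK293 cells received 50 ng of EGFP mRNA. Efficiency was expressed as percent GFP-expressing cells over Hoechst-defined total cell number.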

SMILES	Absolute mRNA transfection efficiency in HEK293 cells
CCCCCCCCCCCCSc1nc(NCCN2CCCCC2)nc(SCCCCCCCCCC)n1 [Compound S10S12D4]	3.4%
CCCCCCCCCCCCSc1nc(NCCN2CCN(C)CC2)nc(SCCCCCCCCCC)n1 [Compound S10S12D5]	33.5%
CCCCCCCCCCCCSc1nc(NCCCN(C)C)nc(SCCCCCCCCCC)n1 [Compound S10S12D6]	82.4%
CCCCCCCCCCCCSc1nc(NCCN(CC)CC)nc(SCCCCCCCCCC)n1 [Compound S10S12D7]	0.0%
CCCCCCCCCCCCSc1nc(NCCCN2CCOCC2)nc(SCCCCCCCCCC)n1 [Compound S10S12D8]	5.4%
CCCCCCCCCCCCSc1nc(NCCCN2CCN(C)CC2)nc(SCCCCCCCCCC)n1 [Compound S10S12D9]	53.7%
CCCCCCCCCCCCSc1nc(NCC2CCN(C)CC2)nc(SCCCCCCCCCC)n1 [Compound S10S12D10]	91.0%
CCCCCCCCCCCCCCSc1nc(NCCN(C)C)nc(SCCCCCCCCCC)n1 [Compound S10S14D1]	0.1%
CCCCCCCCCCCCCCSc1nc(NCCN2CCOCC2)nc(SCCCCCCCCCC)n1 [Compound S10S14D2]	0.2%
CCCCCCCCCCCCCCSc1nc(NCCN2CCCC2)nc(SCCCCCCCCCC)n1 [Compound S10S14D3]	0.6%
CCCCCCCCCCCCCCSc1nc(NCCN2CCCCC2)nc(SCCCCCCCCCC)n1 [Compound S10S14D4]	0.2%
CCCCCCCCCCCCCCSc1nc(NCCN2CCN(C)CC2)nc(SCCCCCCCCCC)n1 [Compound S10S14D5]	12.9%
CCCCCCCCCCCCCCSc1nc(NCCCN(C)C)nc(SCCCCCCCCCC)n1 [Compound S10S14D6]	48.6%
CCCCCCCCCCCCCCSc1nc(NCCN(CC)CC)nc(SCCCCCCCCCC)n1 [Compound S10S14D7]	1.3%
CCCCCCCCCCCCCCSc1nc(NCCCN2CCOCC2)nc(SCCCCCCCCCC)n1 [Compound S10S14D8]	7.5%
CCCCCCCCCCCCCCSc1nc(NCCCN2CCN(C)CC2)nc(SCCCCCCCCCC)n1 [Compound S10S14D9]	5.7%
CCCCCCCCCCCCCCSc1nc(NCC2CCN(C)CC2)nc(SCCCCCCCCCC)n1 [Compound S10S14D10]	37.7%
CCCCCCCCCCCCCCCSc1nc(NCCN(C)C)nc(SCCCCCCCCCC)n1 [Compound S10S15D1]	0.0%
CCCCCCCCCCCCCCCSc1nc(NCCN2CCOCC2)nc(SCCCCCCCCCC)n1 [Compound S10S15D2]	0.7%
CCCCCCCCCCCCCCCSc1nc(NCCN2CCCC2)nc(SCCCCCCCCCC)n1 [Compound S10S15D3]	19.6%
CCCCCCCCCCCCCCCSc1nc(NCCN2CCCCC2)nc(SCCCCCCCCCC)n1 [Compound S10S15D4]	0.7%

SMILES	Absolute mRNA transfection efficiency in HEK293 cells
CCCCCCCCCCCCCCCSc1nc(NCCN2CCN(C)CC2)nc(SCCCCCCCCCC)n1 [Compound S10S15D5]	9.4%
CCCCCCCCCCCCCCCSc1nc(NCCCN(C)C)nc(SCCCCCCCCCC)n1 [Compound S10S15D6]	24.6%
CCCCCCCCCCCCCCCSc1nc(NCCN(CC)CC)nc(SCCCCCCCCCC)n1 [Compound S10S15D7]	0.0%
CCCCCCCCCCCCCCCSc1nc(NCCCN2CCOCC2)nc(SCCCCCCCCCC)n1 [Compound S10S15D8]	11.1%
CCCCCCCCCCCCCCCSc1nc(NCCCN2CCN(C)CC2)nc(SCCCCCCCCCC)n1 [Compound S10S15D9]	3.8%
CCCCCCCCCCCCCCCSc1nc(NCC2CCN(C)CC2)nc(SCCCCCCCCCC)n1 [Compound S10S15D10]	19.4%
CCCCCCCCCCCCCCCCSc1nc(NCCN(C)C)nc(SCCCCCCCCCC)n1 [Compound S10S16D1]	0.1%
CCCCCCCCCCCCCCCCSc1nc(NCCN2CCOCC2)nc(SCCCCCCCCCC)n1 [Compound S10S16D2]	0.3%
CCCCCCCCCCCCCCCCSc1nc(NCCN2CCCC2)nc(SCCCCCCCCCC)n1 [Compound S10S16D3]	1.7%
CCCCCCCCCCCCCCCCSc1nc(NCCN2CCCCC2)nc(SCCCCCCCCCC)n1 [Compound S10S16D4]	0.8%
CCCCCCCCCCCCCCCCSc1nc(NCCN2CCN(C)CC2)nc(SCCCCCCCCCC)n1 [Compound S10S16D5]	13.6%
CCCCCCCCCCCCCCCCSc1nc(NCCCN(C)C)nc(SCCCCCCCCCC)n1 [Compound S10S16D6]	41.6%
CCCCCCCCCCCCCCCCSc1nc(NCCN(CC)CC)nc(SCCCCCCCCCC)n1 [Compound S10S16D7]	0.7%
CCCCCCCCCCCCCCCCSc1nc(NCCCN2CCOCC2)nc(SCCCCCCCCCC)n1 [Compound S10S16D8]	4.0%
CCCCCCCCCCCCCCCCSc1nc(NCCCN2CCN(C)CC2)nc(SCCCCCCCCCC)n1 [Compound S10S16D9]	19.9%
CCCCCCCCCCCCCCCCCCSc1nc(NCCN(C)C)nc(SCCCCCCCCCC)n1 [Compound S10S18D1]	3.5%
CCCCCCCCCCCCCCCCCCSc1nc(NCCN2CCOCC2)nc(SCCCCCCCCCC)n1 [Compound S10S18D2]	0.2%
CCCCCCCCCCCCCCCCCCSc1nc(NCCN2CCCC2)nc(SCCCCCCCCCC)n1 [Compound S10S18D3]	21.5%
CCCCCCCCCCCCCCCCCCSc1nc(NCCN2CCCCC2)nc(SCCCCCCCCCC)n1 [Compound S10S18D4]	6.2%
CCCCCCCCCCCCCCCCCCSc1nc(NCCN2CCN(C)CC2)nc(SCCCCCCCCCC)n1 [Compound S10S18D5]	3.5%
CCCCCCCCCCCCCCCCCCSc1nc(NCCCN(C)C)nc(SCCCCCCCCCC)n1 [Compound S10S18D6]	19.9%
